This assay has as its system AMPK. In words: AMPK activation assay (enzyme-linked immunosorbent assay). The format is cell-based. On the procedure:
Compounds were assayed for their ability to activate AMPK using an enzyme-linked immunosorbent assay. Reagents and procedures for measuring AMPK activation are well known and kits for AMPK activation assays are commercially available.

These results are taken from patent US20150087673A1, “METHODS FOR USING AND BIOMARKERS FOR AMPK-ACTIVATING COMPOUNDS” (RIGEL PHARMACEUTICALS, INC., priority 2013, published 2015).

For orientation: EC50 means the midpoint of the concentration-response curve. Low values mean a more potent agent, high ones a less potent agent. `COc1ccc(OC2CCN(C(=O)c3ccc(C(=O)NC4CCN(Cc5cc(F)cc(F)c5)CC4)nc3)CC2)cc1` [Compound 296, N-(1-(3,5-difluorobenzyl)piperidin-4-yl)-5-(4-(4-methoxyphenoxy)piperidine-1-carbonyl)picolinamide] came in with an EC50 of less than 500 nM.

The compound `N#Cc1ccc(CN2CCC(NC(=O)c3ccc(C(=O)N4CCN(C(=O)C5CCCCC5)CC4)cn3)CC2)cc1` [Compound 89, N-(1-(4-cyanobenzyl)piperidin-4-yl)-5-(4-(cyclohexanecarbonyl)piperazine-1-carbonyl)picolinamide] had an EC50 of 1000 to 5000 nM.

`N#Cc1ccc(OC2CCN(C(=O)c3ccc(C(=O)N[C@H]4CC[C@@H](Oc5ccc(F)cc5)CC4)cn3)CC2)cc1` [Compound 324, 6-(4-(4-cyanophenoxy)piperidine-1-carbonyl)-N-((cis)-4-(4-fluorophenoxy)cyclohexyl)nicotinamide] returned a 50% effective concentration (EC50) of less than 500 nM.

For `O=C(NC1CCN(Cc2ccc(OC(F)(F)F)cc2)CC1)c1ccc(C(=O)N2CCC(C(=O)c3ccc(N4CCCC4)cc3)CC2)nc1` [Compound 440, 6-(4-(4-(pyrrolidin-1-yl)benzoyl)piperidine-1-carbonyl)-N-(1-(4-(trifluoromethoxy)benzyl)piperidin-4-yl)nicotinamide], the 50% effective concentration (EC50) is less than 500 nM.

Consider `CS(=O)(=O)c1ccc(CN2CCC(NC(=O)c3ccc(C(=O)N4CCC(C(=O)c5ccc(F)cc5F)CC4)nc3)CC2)cc1` [Compound 213, 6-(4-(2,4-difluorobenzoyl)piperidine-1-carbonyl)-N-(1-(4-(methylsulfonyl)benzyl)piperidin-4-yl)nicotinamide], for which the EC50 was less than 500 nM.

The compound `N#Cc1ccc(CN2CCC(NC(=O)c3ccc(C(=O)N4CCC(Oc5ccc(N)cc5)CC4)nc3)CC2)cc1` [Compound 364, 6-(4-(4-aminophenoxy)piperidine-1-carbonyl)-N-(1-(4-cyanobenzyl)piperidin-4-yl)nicotinamide] gave an EC50 of less than 500 nM.

With `CS(=O)(=O)c1ccc(OC2CCN(C(=O)c3ccc(C(=O)NC4CCN(Cc5ccc(C#N)cc5)CC4)nc3)CC2)cc1` [Compound 227, N-(1-(4-cyanobenzyl)piperidin-4-yl)-5-(4-(4-(methylsulfonyl)phenoxy)piperidine-1-carbonyl)picolinamide], the EC50 was less than 500 nM.

The compound `COc1ccc(C(=O)C2CCN(C(=O)c3ccc(C(=O)NC4CCN(Cc5cccc(OC)c5)CC4)cn3)CC2)cc1` [Compound 425, 6-(4-(4-methoxybenzoyl)piperidine-1-carbonyl)-N-(1-(3-methoxybenzyl)piperidin-4-yl) nicotinamide] came in with an EC50 of less than 500 nM.

In turn, `N#Cc1ccc(CN2CCC(NC(=O)c3ccc(C(=O)N4CCC(Oc5ccc(SC(F)(F)F)cc5)CC4)nn3)CC2)cc1` [Compound 436, N-(1-(4-cyanobenzyl)piperidin-4-yl)-6-(4-(4-(trifluoromethylthio)phenoxy)piperidine-1-carbonyl)pyridazine-3-carboxamide] came in with an EC50 of less than 500 nM.

Compound `O=C(c1ccc(C(=O)N2CCN(CCc3ccccc3)CC2)nc1)N1CCN(CCc2ccccc2)CC1` [Compound 92, pyridine-2,5-diylbis((4-phenethylpiperazin-1-yl)methanone)] showed an EC50 greater than 10000 nM.

In turn, `N#Cc1ccc(O[C@H]2CC[C@H](NC(=O)c3ccc(C(=O)N4CCC(C(=O)c5ccc(F)cc5)CC4)cn3)CC2)cc1` [Compound 168, N-((trans)-4-(4-cyanophenoxy)cyclohexyl)-5-(4-(4-fluorobenzoyl)piperidine-1-carbonyl)picolinamide] came in with an EC50 of less than 500 nM.

Turning to `COc1ccc(C(=O)C2CCN(c3ccc(C(=O)NC4CCN(Cc5ccc(C#N)cc5)CC4)nc3)CC2)cc1` [Compound 302, N-(1-(4-cyanobenzyl)piperidin-4-yl)-5-(4-(4-methoxybenzoyl)piperidin-1-yl)picolinamide], the EC50 is less than 500 nM.

As to `N#Cc1ccc(CN2CCC(NC(=O)c3ccc(C(=O)N4CCC(C(=O)c5ccc(N6CCCC6)cc5)CC4)nc3)CC2)cc1F` [Compound 447, N-(1-(4-cyano-3-fluorobenzyl)piperidin-4-yl)-6-(4-(4-(pyrrolidin-1-yl)benzoyl)piperidine-1-carbonyl)nicotinamide], the EC50 was less than 500 nM.

On to `CS(=O)(=O)c1ccc(OC2CCN(C(=O)c3cnc(C(=O)Nc4ccc(Oc5ccc(F)cc5)nc4)cn3)CC2)cc1` [Compound 207, N-(6-(4-fluorophenoxy)pyridin-3-yl)-5-(4-(4-(methylsulfonyl)phenoxy)piperidine-1-carbonyl)pyrazine-2-carboxamide], for which the EC50 is less than 500 nM.

`N#Cc1ccc(CN2CCC(NC(=O)c3ccc(C(=O)N4CCC(Oc5ccc(S(F)(F)(F)(F)F)cc5)CC4)cn3)CC2)cc1` [Compound 492, N-(1-(4-cyanobenzyl)piperidin-4-yl)-5-(4-(4-(pentafluorosulfanyl)phenoxy)piperidine-1-carbonyl)picolinamide]: the concentration for a half-maximal effect (EC50) is less than 500 nM.

For `N#Cc1ccc(CN2CCC(NC(=O)c3ccc(C(=O)N4CCC(Oc5ccc(S(=O)(=O)C6CC6)cc5)CC4)nc3)CC2)cc1` [Compound 246, N-(1-(4-cyanobenzyl)piperidin-4-yl)-6-(4-(4-(cyclopropylsulfonyl)phenoxy)piperidine-1-carbonyl)nicotinamide], the concentration for a half-maximal effect (EC50) is less than 500 nM.

`CC(=O)c1ccc(Oc2ccc(NC(=O)c3ccc(C(=O)N4CCC(Oc5ccc(S(C)(=O)=O)cc5)CC4)cn3)cn2)cc1` [Compound 259, N-(6-(4-acetylphenoxy)pyridin-3-yl)-5-(4-(4-(methylsulfonyl)phenoxy)piperidine-1-carbonyl)picolinamide] registered an EC50 of less than 500 nM.

For the compound `COc1ccc(C(=O)C2CCN(C(=O)c3ccc(C(=O)NC4CCN(Cc5ccc(S(C)(=O)=O)cc5)CC4)cn3)CC2)cc1` [Compound 215, 6-(4-(4-methoxybenzoyl)piperidine-1-carbonyl)-N-(1-(4-(methylsulfonyl)benzyl)piperidin-4-yl)nicotinamide], the EC50 was greater than 10000 nM.

Turning to `CS(=O)(=O)c1ccc(CN2CCC(NC(=O)c3ccc(C(=O)N4CCC(Oc5ccc(C#N)cc5)CC4)nc3)CC2)cc1` [Compound 214, 6-(4-(4-cyanophenoxy)piperidine-1-carbonyl)-N-(1-(4-(methylsulfonyl)benzyl)piperidin-4-yl)nicotinamide], the EC50 was greater than 10000 nM.

As to `COc1ccc(C(=O)C2CCN(C(=O)c3ccc(C(=O)NC4CCN(Cc5ccc(F)cc5)CC4)nc3)CC2)cc1` [Compound 178, N-(1-(4-fluorobenzyl)piperidin-4-yl)-5-(4-(4-methoxybenzoyl)piperidine-1-carbonyl)picolinamide], the concentration for a half-maximal effect (EC50) is less than 500 nM.

With `COc1ccc(CN2CCC(NC(=O)c3ccc(C(=O)N4CCC(C(=O)c5ccc(OC)cc5)CC4)cn3)CC2)cc1` [Compound 163, 5-(4-(4-methoxybenzoyl)piperidine-1-carbonyl)-N-(1-(4-methoxybenzyl)piperidin-4-yl)picolinamide], the EC50 was less than 500 nM.

In turn, `N#Cc1ccc(CN2CCC(NC(=O)c3ccc(C(=O)N4CCC(C(=O)c5ccc(-n6cccn6)cc5)CC4)nc3)CC2)cc1` [Compound 393, 6-(4-(4-(1H-pyrazol-1-yl)benzoyl)piperidine-1-carbonyl)-N-(1-(4-cyanobenzyl)piperidin-4-yl)nicotinamide] displayed an EC50 of less than 500 nM.

Regarding `CS(=O)(=O)Nc1ccc(CN2CCC(NC(=O)c3ccc(C(=O)N4CCC(Oc5ccc(C#N)cc5)CC4)nc3)CC2)cc1` [Compound 217, 6-(4-(4-cyanophenoxy)piperidine-1-carbonyl)-N-(1-(4-(methylsulfonamido)benzyl)piperidin-4-yl)nicotinamide], the EC50 is greater than 10000 nM.

In turn, `O=C(Nc1ccc(-c2ccc(C(F)(F)F)cc2)cc1)c1ccc(C(=O)N2CCN(Cc3ccc(F)cc3)CC2)cn1` [Compound 25, 5-(4-(4-fluorobenzyl)piperazine-1-carbonyl)-N-(4-(4-trifluoromethylphenyl)phenyl)picolinamide] returned an EC50 of less than 500 nM.

Compound `Cc1ccc(OC2CCN(C(=O)c3ccc(C(=O)NC4CCN(Cc5cc(F)cc(F)c5)CC4)nc3)CC2)cc1` [Compound 293, N-(1-(3,5-difluorobenzyl)piperidin-4-yl)-5-(4-(p-tolyloxy)piperidine-1-carbonyl)picolinamide] displayed an EC50 of less than 500 nM.

In turn, `O=C(c1ccccc1)c1ccc(NC(=O)c2ccc(C(=O)N3CCN(Cc4ccc(F)cc4)CC3)cn2)cc1` [Compound 26, N-(4-benzoylphenyl)-5-(4-(4-fluorobenzyl)piperazine-1-carbonyl)picolinamide] had an EC50 of less than 500 nM.

As for `O=C(NC1CCN(Cc2ccc(OC(F)(F)F)cc2)CC1)c1ccc(C(=O)N2CCC(S(=O)(=O)c3ccc(F)cc3)CC2)nc1` [Compound 470, 6-(4-(4-fluorophenylsulfonyl)piperidine-1-carbonyl)-N-(1-(4-(trifluoromethoxy)benzyl)piperidin-4-yl)nicotinamide], the EC50 is less than 500 nM.

In turn, `COc1ccc(OC2CCN(C(=O)c3ccc(C(=O)NC4CCN(Cc5ccc(C#N)cc5)CC4)cn3)CC2)c(NC(=O)CCOCCOCCOCCOCCNC(=O)CCCC[C@@H]2SC[C@@H]3NC(=O)N[C@@H]32)c1` [Compound 394, N-(1-(4-cyanobenzyl)piperidin-4-yl)-6-(4-(4-methoxy-2-(17-oxo-21-((3aS,4S,6aR)-2-oxohexahydro-1H-thieno[3,4-d]imidazol-4-yl)-4,7,10,13-tetraoxa-16-azahenicosanamido)phenoxy)piperidine-1-carbonyl)nicotinamide] yielded an EC50 greater than 10000 nM.

As for `O=C(N[C@@H]1CCN(Cc2ccncc2)C[C@@H]1F)c1ccc(C(=O)N2CCN(Cc3ccc(F)cc3)CC2)cn1` (relative stereo) [Compound 104, N-(cis-3-fluoro-1-(pyridin-4-ylmethyl)piperidin-4-yl)-5-(4-(4-fluorobenzyl)piperazine-1-carbonyl)picolinamide], the EC50 is less than 500 nM.

With `N#Cc1ccc(CN2CCC(NC(=O)c3ccc(C(=O)N4CCC(Oc5ccc(NC(=O)CCOCCOCCOCCOCCNC(=O)CCC[C@@H]6SC[C@@H]7NC(=O)N[C@@H]76)cc5)CC4)nc3)CC2)cc1` [Compound 371, N-(1-(4-cyanobenzyl)piperidin-4-yl)-6-(4-(4-(17-oxo-20-((3aS,4S,6aR)-2-oxohexahydro-1H-thieno[3,4-d]imidazol-4-yl)-4,7,10,13-tetraoxa-16-azaicosanamido)phenoxy)piperidine-1-carbonyl)nicotinamide], the half-maximal effective concentration (EC50) was greater than 10000 nM.
